According to patent US12319726B2, “Method for treating CD40-mediated diseases” (CASE WESTERN RESERVE UNIVERSITY, priority 2008, dated 2025):
Where a SMILES comes first, the peptide text is derived from it. [ ]: non-standard residue; d: D form.

Key:
Type in all cases: cell-based
human Müller cells = tested on: human Müller cells
Excerpt: (§1) Peptide consisted of the TRAF2,3 binding site of CD40 that was made cell permeable by linking them to the TAT47-57 cell penetrating peptide. Peptides were synthesized using D-amino acids following reverse amino acid sequence (ri format). The sequences for the CD40-TRAF2,3 blocking peptide was —NH2-rrrqrrkkrgy ghlteqvhaatn-OH (SEQ ID NO: 49). The TAT47-57 sequence is underlined. The peptide contains a proline (p) to histidine (h) substitution (shown in italics) that enhances affinity to TRAF2. Control (scrambled) peptide consisted of NH2-rrrqrrkkrgy ntqalahtgevh-OH (SEQ ID NO: 50). The blocking peptide was also synthesized with Alexa Fluor 488 conjugated via maleimide coupling to an additional Cys in the N terminus. Peptides were manufactured by Biopeptide Co. (San Diego, CA) and were low in endotoxin and >98% pure by HPLC. Peptides were used at 1 μM in vitro experiments and 1 μg for in vivo studies unless otherwise stated. Peptides were not toxic to human Müller and retinal endothelial cells as assessed by alamarBlue cell viability assay (Invitrogen Corporation).
(§2) Primary human retinal endothelial cells were obtained as described (9) and cultured in complete medium supplemented with endothelial cell growth supplement from bovine pituitary (15 μg/ml; Sigma Chemical, St Louis, MO) and insulin/transferrin/selenium (Sigma Chemical). Cell identity was confirmed by incorporation of acetylated low-density lipoprotein (>90%). Endothelial cells were used between passages 3 to 6. The human Müller cell line MIO M1 (gift from Dr. Gloria Limb; University College London, UK; >95% vimentin^+, CRALBP^+ and GFAP^−) was also used. Endothelial cells were incubated with multimeric human CD154 to induce CD40 stimulation (obtained from Dr. Richard Kornbluth, Multimeric Biotherapeutics Inc., La Jolla, CA) or with a non-functional CD154 mutant (T147N) as control.
(§3) Peptides were tested as described using the mouse endothelial cells mHEVc that expresses a chimera of the extracellular domain of human CD40 and intracytoplasmic domain of mouse CD40 (hmCD40) with either a mutation that prevents recruitment of TRAF2,3 (hmCD40 ΔT2,3) or TRAF6 (hmCD40 ΔT6). These cells were transfected with pGL4.32luc2P/NF-κB-RE/Hygro vector (Promega Corporation, Madison, WI) encoding an NF-κB response element that drives the luciferase reporter gene luc2P (Photinus pyralis). Cells were pre-incubated with peptides for 3 hr. followed by stimulation with human CD154. Luciferase activity was assessed using a Steady-Glo luciferase assay system (Promega Corporation) and a luminometer. The effects of peptides on cell viability were examined using alamarBlue cell viability assay.

[1] = tested on: human retinal endothelial cells
Excerpt: as §1, §2, §3

[2] = tested on: human retinal endothelial cells; experiment: ICAM-1 upregulation in human retinal endothelial cells (flow cytometry); details: 1 μM, 24 h
Description: FIG. 18 illustrates graphs showing ri CD40-TRAF2,3 blocking peptide inhibits CD40-driven upregulation of ICAM-1. Human retinal endothelial cells were treated with ri control peptide (Ctr P) or ri CD40-TRAF2,3 blocking peptide (T2,3 BP; both at 1 μM) followed by stimulation with CD154 or TNF-α. Expression of ICAM-1 was assessed by flow cytometry at 24 h. Data shown represent Mean±SD. Results are representative of 2 independent experiments. **P<0.01.
as §2
Cells were incubated with anti-ICAM-1 mAb (eBiosciences). After fixation with 1% paraformaldehyde, cells were analyzed using an LSR II (Becton Dickinson). […]

Compound: CC(C)C[C@@H](NC(=O)[C@@H](Cc1c[nH]cn1)NC(=O)CNC(=O)[C@@H](Cc1ccc(O)cc1)NC(=O)CNC(=O)[C@@H](CCCNC(=N)N)NC(=O)[C@@H](CCCCN)NC(=O)[C@@H](CCCCN)NC(=O)[C@@H](CCCNC(=N)N)NC(=O)[C@@H](CCCNC(=N)N)NC(=O)[C@@H](CCC(N)=O)NC(=O)[C@@H](CCCNC(=N)N)NC(=O)[C@@H](CCCNC(=N)N)NC(=O)[C@H](N)CCCNC(=N)N)C(=O)N[C@@H](C(=O)N[C@H](CCC(=O)O)C(=O)N[C@H](CCC(N)=O)C(=O)N[C@@H](C(=O)N[C@H](Cc1c[nH]cn1)C(=O)N[C@H](C)C(=O)N[C@H](C)C(=O)N[C@@H](C(=O)N[C@H](CC(N)=O)C(=O)O)[C@H](C)O)C(C)C)[C@H](C)O [ri CD40-TRAF2,3 blocking peptide, NH2-rrrqrrkkrgy ghlteqvhaatn-OH] (H-[dR][dR][dR][dQ][dR][dR][dK][dK][dR]G[dY]G[dH][dL][dT][dE][dQ][dV][dH][dA][dA][dT][dN]-OH)
- toxicity (alamarBlue cell viability assay) (human Müller cells): not toxic
- toxicity (alamarBlue cell viability assay) [1]: not toxic
- upregulation of ICAM-1 in response to CD154 ([2]; CD154 stimulation, P<0.01): impaired upregulation of ICAM-1
- TNF-α-induced upregulation of ICAM-1 ([2]; TNF-α stimulation): no effect
